Results taken from patent US10208037B2, “Toll-like receptor-7 and -8 modulatory 1H imidazoquinoline derived compounds” (The University of Kansas, priority 2011, dated 2019).
pIC50: −log10 of the molar value.

What was measured:
Type in all cases: cell-based
[1] = test system: TLR7 and TLR8-induced cytokine and chemokine release; assay: Inhibition of TLR7- and TLR8-mediated cytokine and chemokine production in human PBMCs; conditions: hPBMCs
Method: FIGS. 22A-[…] illustrate inhibition of TLR7-mediated (FIGS. 22A-22D) and TLR8-mediated (FIGS. 22E-[…]) proinflammatory cytokine production in human peripheral blood mononuclear cells by chloroquine or 47a. Proinflammatory cytokines were assayed by cytokine bead array methods after incubation of hPBMCs with graded concentrations of the test compound for 12 h in the presence of 10 μg/ml of either CL075 (TLR8 agonist) or gardiquimod (TLR7 agonist). FIGS. 23A-23D illustrate inhibition of TLR7-mediated (FIGS. 23A-23B) and TLR8-mediated (FIGS. 23C-3D) chemokine production in human peripheral blood mononuclear cells by chloroquine or 47a. Chemokines were assayed by cytokine bead array methods after incubation of hPBMCs with graded concentrations of the test compound for 12 h in the presence of 10 μg/ml of either CL075 (TLR8 agonist) or gardiquimod (TLR7 agonist). Aliquots (10^6 cells in 100 μL) of hPBMCs isolated from blood obtained from healthy human donors after informed consent by conventional Ficoll-Hypaque gradient centrifugation were stimulated for 12 h with graded concentrations of test compounds. The supernatant was isolated by centrifugation, diluted 1:20, and cytokines and chemokines were assayed in triplicate using analyte-specific cytokine/chemokine bead array assays as reported by us previously.^74

TLR8 [2] = molecular target: T1, TLR8 (Homo sapiens, UniProt Q9NR97); assay: TLR8 reporter gene assay, antagonism (CL075 as agonist)
T1 construct: expressed in transfected cells; host or cells: HEK293 (HEK-Blue-8 cells)
T1 sequence (Q9NR97 27-1041): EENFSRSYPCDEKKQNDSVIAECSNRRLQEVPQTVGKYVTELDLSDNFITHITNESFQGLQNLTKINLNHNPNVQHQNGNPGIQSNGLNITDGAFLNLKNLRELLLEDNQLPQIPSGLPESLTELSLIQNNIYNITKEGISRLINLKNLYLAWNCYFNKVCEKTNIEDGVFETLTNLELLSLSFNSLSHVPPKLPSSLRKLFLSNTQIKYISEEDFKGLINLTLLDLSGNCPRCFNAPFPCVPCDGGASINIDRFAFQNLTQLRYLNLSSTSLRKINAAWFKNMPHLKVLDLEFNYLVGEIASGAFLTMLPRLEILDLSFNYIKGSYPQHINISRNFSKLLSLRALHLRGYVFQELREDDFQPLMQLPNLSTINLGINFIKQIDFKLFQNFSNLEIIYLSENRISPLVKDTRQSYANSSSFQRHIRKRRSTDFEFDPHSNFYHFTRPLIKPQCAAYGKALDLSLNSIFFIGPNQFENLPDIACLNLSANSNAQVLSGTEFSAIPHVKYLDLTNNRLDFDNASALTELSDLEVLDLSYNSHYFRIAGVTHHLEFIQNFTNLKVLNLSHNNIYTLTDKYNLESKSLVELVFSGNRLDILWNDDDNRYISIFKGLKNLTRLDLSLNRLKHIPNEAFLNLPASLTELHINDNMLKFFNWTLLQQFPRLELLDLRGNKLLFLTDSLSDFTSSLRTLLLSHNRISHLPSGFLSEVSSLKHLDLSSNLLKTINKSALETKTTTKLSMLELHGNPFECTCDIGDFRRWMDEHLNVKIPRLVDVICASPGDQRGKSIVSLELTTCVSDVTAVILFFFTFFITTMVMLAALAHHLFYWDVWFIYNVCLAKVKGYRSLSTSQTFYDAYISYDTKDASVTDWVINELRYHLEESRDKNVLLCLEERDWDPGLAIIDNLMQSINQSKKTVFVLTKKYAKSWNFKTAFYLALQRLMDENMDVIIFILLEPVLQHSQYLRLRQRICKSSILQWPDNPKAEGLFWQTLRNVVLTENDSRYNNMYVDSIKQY
Source text: (§1) The induction of NF-κB was quantified using HEK-Blue-3, HEK-Blue-7 and HEK-Blue-8 cells as previously described by us.^8,24,51 HEK293 cells were stably transfected with human TLR3 (or human TLR7 or human TLR8), MD2, and secreted alkaline phosphatase (sAP), and were maintained in HEK-Blue™ Selection medium containing zeocin and normocin. Stable expression of secreted alkaline phosphatase (sAP) under control of NF-κB/AP-1 promoters is inducible by the TLR3 (or TLR7 or TLR8) agonists, and extracellular sAP in the supernatant is proportional to NF-κB induction. HEK-Blue cells were incubated at a density of ˜10^5 cells/ml in a volume of 80 μl/well, in 384-well, flat-bottomed, cell culture-treated microtiter plates until confluency was achieved, and subsequently graded concentrations of stimuli. sAP was assayed spectrophotometrically using an alkaline phosphatase-specific chromogen (present in HEK-detection medium as supplied by the vendor) at 620 nm.
(§2) Antagonism assays were done as described by us earlier^73 using the following agonists at a constant concentration: TLR3 Poly(I:C) (10 ng/mL); TLR7: gardiquimod (1 μg/mL); TLR8: CL075 (1 μg/mL) mixed with graded concentrations of the test compounds.

TLR7 [3] = molecular target: T2, TLR7 (Homo sapiens, UniProt Q9NYK1); assay: TLR7 reporter gene assay, antagonism (gardiquimod as agonist)
T2 construct: expressed in transfected cells; host or cells: HEK293 (HEK-Blue-7 cells)
T2 sequence (Q9NYK1 27-1049): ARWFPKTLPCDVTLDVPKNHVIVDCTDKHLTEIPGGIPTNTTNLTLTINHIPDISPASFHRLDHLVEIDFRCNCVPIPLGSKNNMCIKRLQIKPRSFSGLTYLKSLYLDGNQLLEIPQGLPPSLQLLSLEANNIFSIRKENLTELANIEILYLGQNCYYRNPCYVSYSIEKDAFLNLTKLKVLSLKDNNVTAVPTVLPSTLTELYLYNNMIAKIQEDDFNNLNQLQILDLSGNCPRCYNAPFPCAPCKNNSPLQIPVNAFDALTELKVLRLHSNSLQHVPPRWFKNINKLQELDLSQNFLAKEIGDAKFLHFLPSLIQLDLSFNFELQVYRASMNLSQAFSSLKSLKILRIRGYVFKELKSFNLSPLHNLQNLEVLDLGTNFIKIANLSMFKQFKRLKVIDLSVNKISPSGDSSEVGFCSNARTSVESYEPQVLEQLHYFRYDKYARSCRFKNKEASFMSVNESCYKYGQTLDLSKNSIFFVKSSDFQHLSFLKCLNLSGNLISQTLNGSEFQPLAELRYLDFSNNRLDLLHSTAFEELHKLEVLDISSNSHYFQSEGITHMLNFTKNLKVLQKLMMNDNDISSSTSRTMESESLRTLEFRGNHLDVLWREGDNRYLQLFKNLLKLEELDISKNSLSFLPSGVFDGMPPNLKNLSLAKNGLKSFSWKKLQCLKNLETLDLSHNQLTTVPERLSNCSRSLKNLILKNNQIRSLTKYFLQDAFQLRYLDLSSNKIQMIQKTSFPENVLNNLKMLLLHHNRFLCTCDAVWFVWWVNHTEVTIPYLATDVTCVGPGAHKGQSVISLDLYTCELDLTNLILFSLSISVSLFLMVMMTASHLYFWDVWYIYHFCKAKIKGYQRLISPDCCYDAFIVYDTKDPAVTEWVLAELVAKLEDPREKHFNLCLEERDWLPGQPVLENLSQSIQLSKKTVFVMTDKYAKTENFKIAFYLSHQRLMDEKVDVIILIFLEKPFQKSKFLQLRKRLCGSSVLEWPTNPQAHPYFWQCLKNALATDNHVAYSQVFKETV
Source text: as §1, §2

TLR8 [4] = molecular target: T1, TLR8; assay: Schild plot analysis of inhibition of TLR8-induced activation
Method: (§3) Experiments were performed in checker-board format, using a liquid handler, in 384-well plates which permitted the concentrations of both agonist and antagonist to be varied simultaneously along the two axes of the plate. Either imidazoquinoline (TLR7-specific agonist) or CL075 (TLR8-specific agonist) was used at a starting concentration of 20 μg/mL, and were two-fold diluted serially (along the rows). Next, 47a or chloroquine was two-fold diluted serially in HEK detection medium (along columns). Reporter cells were then added, incubated, and NF-κB activation measured as described in the text. A and A′ (Y-axis) are defined respectively as the EC50 value in the absence of antagonist, and the EC50 values in the presence of varying concentrations of antagonist.

TLR7 [5] = molecular target: T2, TLR7; assay: Schild plot analysis of inhibition of TLR7-induced activation
Method: as §3

pIC50 ([1]; Homo sapiens, PBMC, 12 h, 10 μg/ml CL075 or gardiquimod): 6.52 to 7.30
TLR8 antagonistic activity (in words) (TLR8 [2]): potent antagonistic activity
pIC50 (TLR8 [2]; agonist CL075 1 μg/mL, ND = not detected): 5.49
TLR7 antagonistic activity (in words) (TLR7 [3]): potent antagonistic activity
pIC50 (TLR7 [3]; agonist gardiquimod 1 μg/mL, ND = not detected): 5.51
Schild plot slope, TLR8 inhibition (TLR8 [4]): 0.51
Schild plot slope, TLR7 inhibition (TLR7 [5]): 1.12
Compound: Nc1nc2ccccc2c2c1nc(CCCc1nc3c(N)nc4ccccc4c3n1Cc1ccccc1)n2Cc1ccccc1 [Compound 47a, 2,2′-(propane-1,3-diyl)bis(1-benzyl-1H-imidazo[4,5-c]quinolin-4-amine)]
Inhibition of TNF-α and IL-1β production (in words) [1]: potently inhibits
